Assay results taken from PubChem BioAssay (NCI).
Where “and” joins values, the source holds several entries; their conditions need not be identical. Identical values can stand only once.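 Method: 48-hour compound exposure of cells in 96-well plates, five concentrations, linear interpolation of endpoints. At the GI50, growth is halved. Definition used: TGI = concentration required for complete inhibition of growth.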

Key:
Assay in all cases: NCI-60 cell line screen, 48 h
HCC-2998 colon = test system: HCC-2998 colon
LOX IMVI melanoma = test system: LOX IMVI melanoma
UO-31 renal = test system: UO-31 renal
HL-60(TB) leukemia = test system: HL-60(TB) leukemia
HCT-116 colon = test system: HCT-116 colon
SF-268 CNS = test system: SF-268 CNS
OVCAR-8 ovarian = test system: OVCAR-8 ovarian
SW-620 colon = test system: SW-620 colon
UACC-257 melanoma = test system: UACC-257 melanoma
SR leukemia = test system: SR leukemia

SMILES	TGI (HCC-2998 colon)	TGI (LOX IMVI melanoma) [µM]	TGI (UO-31 renal)	TGI (HL-60(TB) leukemia)	TGI (HCT-116 colon)	TGI (SF-268 CNS)	TGI (OVCAR-8 ovarian)	TGI (SW-620 colon) [µM]	TGI (UACC-257 melanoma) [µM]	TGI (SR leukemia) [µM]	GI50 (HCC-2998 colon)	GI50 (LOX IMVI melanoma) [µM]	GI50 (UO-31 renal) [µM]	GI50 (HL-60(TB) leukemia) [µM]	GI50 (HCT-116 colon) [µM]	GI50 (SF-268 CNS) [µM]	GI50 (OVCAR-8 ovarian) [µM]	GI50 (SW-620 colon) [µM]	GI50 (UACC-257 melanoma) [µM]	GI50 (SR leukemia)
Cc1ccc([N+]2=NC(c3ccccc3)=NN(c3ccccc3)C2)cc1	> 100 µM	> 100	> 100 µM	> 100 µM	> 100 µM	> 100 µM	> 100 µM	> 100	> 100	> 100	–	–	–	–	–	–	–	–	–	–
COc1cc2c(=O)n(CC3CCCCC3)c3c4cc[nH]c4ncc3c2cc1OC	> 50 µM	14.3	9.56 µM	> 50 µM	12.3 µM	13.9 µM	> 50 µM	14.6	> 50	> 50	18.7 µM	2.3	0.848	12.8	1.01	1.4	5	2	23.8	0.313 µM
CCCCCCCCc1cc(O)ccc1O	34.4 µM	25.8	28.3 µM	16.2 µM	27.9 µM	31.3 µM	> 100 µM	46.1	56.7	50.8	18.4 µM	12.8	15	3.53	14.7	14.1	29.2	21.6	18.6	15 µM
N#CC(C#N)C(c1ccccc1)c1ccccc1	> 100 µM	> 100	> 100 µM	> 100 µM	> 100 µM	> 100 µM	> 100 µM	> 100	> 100	> 100	–	–	–	–	–	–	–	–	–	–
COc1ccc(F)cc1-c1ccnc2[nH]c(C3=CCN(C4CCC(CC(=O)O)CC4)CC3)cc12 (configuration not stated)	> 100 µM	–	0.625 µM	1.45 µM	> 100 µM	17.7 µM	> 100 µM	18.3	> 100	> 100	0.299 µM	–	0.205	0.0739	0.163	0.144	0.288	0.123	0.307	0.0295 µM
N=C1C=C(N)C(=O)c2ccccc21	2.76 µM	0.421	0.32 µM	0.606 µM	0.451 µM	0.451 µM	0.661 µM	0.509	0.306	0.667	1.39 µM	0.17	0.153	0.207	0.183	0.199	0.248	0.22	0.161	0.256 µM
O=C(N/N=C/c1ccc(N(CCCl)CCCl)cc1)c1ccc(C(=O)N/N=C/c2ccc(N(CCCl)CCCl)cc2)cc1	> 100 µM	> 100	> 100 µM	> 100 µM	> 100 µM	27.8 µM	> 100 µM	> 100	> 100	> 100	86.8 µM	1.4	> 100	–	2.48	0.284	12.9	19.5	> 100	–
O=C1CC2OCC=C3CN4CCC5(C(=O)O)C(N1)C2C3CC45 (configuration not stated)	> 100 µM	> 100	> 100 µM	> 100 µM	> 100 µM	> 100 µM	> 100 µM	> 100	> 100	> 100	–	–	–	–	–	–	–	–	–	–
CC(CC(=O)Nc1ccc(NC(=O)CC(C)N=NC(N)=O)cc1)N=NC(N)=O (configuration not stated)	> 100 µM	79.8	> 100 µM	> 100 µM	> 100 µM	> 100 µM	> 100 µM	–	> 100	48.4	–	–	–	–	–	–	–	–	–	–
COC(=O)Nc1nc2ccc(C(=O)c3cccs3)cc2[nH]1	11.5 µM and > 100 µM	> 100	38.2 µM and > 100 µM	0.0753 µM and 0.415 µM	16.5 µM and 14.2 µM	60.7 µM and > 100 µM	15.7 µM and > 100 µM	> 100	> 100	5.98	0.0574 µM and 0.197 µM	0.536	3.23	0.0897	0.0732	0.452	0.487	0.0672	> 100	0.019 µM and 0.0327 µM
O=C(/C=C/c1ccc(Cl)cc1Cl)c1ccc(Cl)cc1Cl	> 70.5 µM	30.1	> 44.8 µM	43.9 µM	17.1 µM	> 100 µM	39.6 µM	47.3	55.3	14.9	23.7 µM	15.8	15	18.3	5.82	> 63.3	16.6	9.22	21.7	3.33 µM
NC1=Nc2ccccc2Sc2ccccc21	> 100 µM	> 100	> 100 µM	> 100 µM	> 100 µM	> 100 µM	> 100 µM	> 100	> 100	> 100	–	–	–	–	–	–	–	–	–	–
CN(C)C(=S)/N=c1\ss/c(=N\S(=O)(=O)c2ccccc2)n1C	> 100 µM	> 100	> 100 µM	> 100 µM	> 100 µM	> 100 µM	> 100 µM	> 100	> 100	> 100	–	–	–	–	–	–	–	–	–	–
COC(=O)C(/C(=N\O)C(=O)Nc1ccc(Br)cc1)c1nc2ccccc2[nH]c1=O (configuration not stated)	> 100 µM	41.6	> 100 µM	55.3 µM	> 100 µM	> 100 µM	> 100 µM	–	> 100	40.5	–	–	–	–	–	–	–	–	–	–
C[C@H]1CCC2C(OC(=O)[C@@H]2CN(C)C)[C@]2(C)C(=O)C=CC12O (some centres not stated)	18.2 µM	17.8	30.8 µM	7.18 µM	12.5 µM	28.6 µM	–	10.2	23.6	11.2	–	–	–	–	–	–	–	–	–	–
O=C1/C(=C/c2ccc(O)cc2)Oc2ccccc21	> 100 µM	> 100	–	92.9 µM	> 100 µM	> 100 µM	> 100 µM	> 100	> 100	> 100	–	–	–	–	–	–	–	–	–	–
